Measurements published in patent US20080200404A1, “Novel Antimalarial 9A-Carbamoyl-Aminoalkyl and 9A-Thiocarbamoyl-Aminoalkyl Azalides” (priority 2005, published 2008).
In brackets after ≈: the same amount, converted by molar mass. Like-named read-outs stand apart in the source and are kept apart here.

Tests used:
Format in all cases: cell-based
[1] = tested on: Plasmodium falciparum TM91C235; assay: In vitro antimalarial [3H]-hypoxanthine incorporation assay, TM91C235; settings: P. falciparum TM91C235 (multiple drug resistant isolate), 72 hours exposure; for IC50: Plasmodium falciparum
How it was run: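 Growth was read by [3H]-hypoxanthine incorporation after 72 h total incubation, as CPM normalized to the mean of untreated infected controls. Erythrocytic-stage TM91C235 (0.4% parasitemia, 1% hematocrit, ALBUMAX medium without folate or PABA, 5% O2/5% CO2, 37° C) was first exposed 48 h to compound at three levels, 25–25,000 ng/ml, in duplicate.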

[2] = tested on: Plasmodium falciparum clone CDC/Indochina III (W-2); assay: In vitro antimalarial [3H]-hypoxanthine incorporation serial dilution assay, W2; settings: P. falciparum W2, 72 hours exposure; for IC50: Plasmodium falciparum
From the text: The in vitro screens for intrinsic antimalarial activity were based on modifications of the procedures described by Desjardins R E, Canfield C J, Haynes J D, Chulay J D. (Quantitative assessment of antimalarial activity in vitro by a semiautomated microdilution technique. Antimicrob Agents Chemother. 1979 December; 16(6):710-8.), Chulay J D, Haynes J D, Diggs C L. (Plasmodium falciparum: Assessment of in vitro growth by [3H]hypoxanthine incorporation. Exp. Parasitol. 1983 55:138-146.), and Milhous W K, Weatherly N F, Bowdre J H, Desjardins R E. (In vitro activities of and mechanisms of resistance to antifol antimalarial drugs. Antimicrob Agents Chemother. 1985 April; 27(4):525-30.). The system was limited to the assessment of the intrinsic activity against the erythrocytic asexual life cycle (blood schizontocides). Two Plasmodium falciparum clones from CDC/Indochina III (W-2) and CDC/Sierra Leone I (D-6) (Oduola A M, Weatherly N F, Bowdre J H, Desjardins R E. Plasmodium falciparum: cloning by single-erythrocyte micromanipulation and heterogeneity in vitro. Exp Parasitol. 1988 66(1):86-95.) were used for all assays. TM91C235, a multiple drug resistant isolate from Thailand, was used for the prescreening assay. W-2 is resistant to chloroquine, quinine, and pyrimethamine and susceptible to mefloquine. D-6 tends to be more resistant to mefloquine and susceptible to chloroquine, quinine, and pyrimethamine. All documents cited in this paragraph are incorporated by reference in their entirety.
All parasites were maintained in continuous long term cultures in RPMI-1640 medium supplemented with 6% washed human A positive (A+)(erythrocytes, 25 mM Hepes, […], and 10% heat inactivated A+human plasma or ALBUMAX® (lipid-rich bovine serum albumin; Invitrogen, Carlsbad, Calif.). All cultures and assays were conducted at 37° C. under an atmosphere of 5% CO2 and 5% O2, with a balance of N2.
After the preincubation, [^3H]-hypoxanthine was added to each well of the MTP. (The assay relies on the incorporation of radiolabeled hypoxanthine by the parasites, which indicates reproduction, and inhibition of isotope incorporation was attributed to activity of known or candidate antimalarial drugs). After 72 hr of total incubation time, the MTP were frozen to lyse the erythrocytes and parasites. The parasite DNA was recovered by harvesting the lysate onto glass-fiber filter plates using a Packard FilterMate™ Cell Harvester. The radioactivity was counted on a Packard TopCount™ microplate scintillation counter. The results were recorded as counts per minutes (CPM) per well at each drug concentration divided by the arithmetic mean of the CPM from the three untreated infection parasite control wells.
The serial dilution assay was conducted using the same assay conditions and stock solution of the compound used for the preliminary screen, described above. Both the D-6 and the W-2 clones were used. The compounds were diluted two-fold over 11 different concentration ranges with a starting concentration that was based on the preliminary screen. For each drug, the concentration response profile was determined and 50% inhibitory concentrations (IC50) were determined by using a non-linear, logistic dose response analysis program. […] For each assay, the IC50 for each clone was determined against the known antimalarials chloroquine and mefloquine. These control values established the compound's relative parasite susceptibility profile compared to known antimalarials. […]
The in vitro potency of the compounds has been compared with that of azithromycin to better gauge compounds suitable for further testing. As described above, parasites were exposed for 72 hours. Data from the in vitro potency tests of azithromycin against the three parasite strains have been averaged, and these numbers have been used for identification of “active” macrolide compounds.

[3] = tested on: Plasmodium falciparum clone CDC/Sierra Leone I (D-6); assay: In vitro antimalarial [3H]-hypoxanthine incorporation serial dilution assay, D6; settings: P. falciparum D6, 72 hours exposure; for IC50: Plasmodium falciparum, D6, 72 h
How it was run: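 IC50 came from logistic fitting of eleven two-fold compound dilutions, read as [3H]-hypoxanthine uptake into parasite DNA relative to untreated infected wells after 72 h. Parasites were grown in A+ human erythrocytes (6%) in RPMI-1640 with plasma or ALBUMAX at 37° C, 5% CO2, 5% O2.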

[4] = compared with azithromycin, read-out: IC50 D6 (class symbol)

Row | IC50 [1] [µg/mL] | IC50 [2] [µg/mL] | IC50 [3, 4] [µg/mL] | IC50 ([3]; read-out: IC50 D6) [µg/mL] | SMILES | IC50 TM91C235 [1] [ng/mL] | IC50 W2 [2] [ng/mL] | IC50 D6 [3] [ng/mL]
1 | 0.377 (≈ 0.411 µM) | 0.169 (≈ 0.185 µM) | > 0.797 |  | CC[C@H]1OC(=O)[C@H](C)[C@@H](O[C@H]2C[C@@](C)(OC)[C@@H](O)[C@H](C)O2)[C@H](C)[C@@H](O[C@@H]2O[C@H](C)C[C@H](N(C)C)[C@H]2O)[C@](C)(O)C[C@@H](C)CN(CCCNC(=O)NC2CCCCC2)[C@H](C)[C@@H](O)[C@]1(C)O [Example 58] |  |  | 
2 | 0.542 (≈ 0.571 µM) | 0.141 (≈ 0.149 µM) | > 0.797 |  | CC[C@H]1OC(=O)[C@H](C)[C@@H](O[C@H]2C[C@@](C)(OC)[C@@H](O)[C@H](C)O2)[C@H](C)[C@@H](O[C@@H]2O[C@H](C)C[C@H](N(C)C)[C@H]2O)[C@](C)(O)C[C@@H](C)CN(CCCNC(=O)Nc2ccc(CC#N)cc2)[C@H](C)[C@@H](O)[C@]1(C)O [Example 63] |  |  | 
3 |  |  |  |  | CC[C@H]1OC(=O)[C@H](C)[C@@H](O[C@H]2C[C@@](C)(OC)[C@@H](O)[C@H](C)O2)[C@H](C)[C@@H](O[C@@H]2O[C@H](C)C[C@H](N(C)C)[C@H]2O)[C@](C)(O)C[C@@H](C)CN(CCCN(CCC(N)=O)C(=O)Nc2ccc(Cl)cc2Cl)[C@H](C)[C@@H](O)[C@]1(C)O [Example 169, 9-Deoxo-9-dihydro-9a-[N′-(β-amidoethyl)-N′-(2,4-dichlorophenyl)carbamoyl-γ-aminopropyl]-9a-aza-9a-homoerythromycin A] | 147.5 (≈ 0.14 µM) | 188.0 (≈ 0.179 µM) | 226.6 (≈ 0.216 µM)
4 | 0.254 (≈ 0.265 µM) | 0.106 (≈ 0.111 µM) |  | 0.798 (≈ 0.835 µM) | CC[C@H]1OC(=O)[C@H](C)[C@@H](O[C@H]2C[C@@](C)(OC)[C@@H](O)[C@H](C)O2)[C@H](C)[C@@H](O[C@@H]2O[C@H](C)C[C@H](N(C)C)[C@H]2O)[C@](C)(O)C[C@@H](C)CN(CCCNC(=O)Nc2ccc3c(c2)OCO3)[C@H](C)[C@@H](O)[C@]1(C)O [Example 68] |  |  | 
5 | 0.16 | 0.278 |  | 0.565 | CC[C@H]1OC(=O)[C@H](C)[C@@H](O[C@H]2C[C@@](C)(OC)[C@@H](O)[C@H](C)O2)[C@H](C)[C@@H](O[C@@H]2O[C@H](C)C[C@H](N(C)C)[C@H]2O)[C@](C)(O)C[C@@H](C)CN(CCCNC(=O)Nc2cccc(F)c2)[C@H](C)[C@@H](O)[C@]1(C)O.O=CO [Example 81] |  |  | 
6 | 0.142 | 0.209 |  | 0.262 | CC[C@H]1OC(=O)[C@H](C)[C@@H](O[C@H]2C[C@@](C)(OC)[C@@H](O)[C@H](C)O2)[C@H](C)[C@@H](O[C@@H]2O[C@H](C)C[C@H](N(C)C)[C@H]2O)[C@](C)(O)C[C@@H](C)CN(CCCNC(=O)Nc2ccccc2-c2ccccc2)[C@H](C)[C@@H](O)[C@]1(C)O.O=CO [Example 85] |  |  | 
7 | 0.332 (≈ 0.354 µM) | 0.19 (≈ 0.202 µM) |  | 0.843 (≈ 0.898 µM) | CC[C@H]1OC(=O)[C@H](C)[C@@H](O[C@H]2C[C@@](C)(OC)[C@@H](O)[C@H](C)O2)[C@H](C)[C@@H](O[C@@H]2O[C@H](C)C[C@H](N(C)C)[C@H]2O)[C@](C)(O)C[C@@H](C)CN(CCCNC(=S)NCCCSC)[C@H](C)[C@@H](O)[C@]1(C)O [Example 109] |  |  | 
8 | 0.105 | 0.114 |  | 0.166 | CC[C@H]1OC(=O)[C@H](C)[C@@H](O[C@H]2C[C@@](C)(OC)[C@@H](O)[C@H](C)O2)[C@H](C)[C@@H](O[C@@H]2O[C@H](C)C[C@H](N(C)C)[C@H]2O)[C@](C)(O)C[C@@H](C)CN(CCCNC(=S)Nc2ccc(-n3cccn3)cc2)[C@H](C)[C@@H](O)[C@]1(C)O.O=CO [Example 140] |  |  | 
9 | 0.312 | 0.714 |  | 0.799 | CC[C@H]1OC(=O)[C@H](C)[C@@H](O[C@H]2C[C@@](C)(OC)[C@@H](O)[C@H](C)O2)[C@H](C)[C@@H](O[C@@H]2O[C@H](C)C[C@H](N(C)C)[C@H]2O)[C@](C)(O)C[C@@H](C)CN(CCCNC(=S)Nc2ccc(N(CC)CC)cc2)[C@H](C)[C@@H](O)[C@]1(C)O.O=CO [Example 121] |  |  | 
10 | 0.117 | 0.186 |  | 0.451 | CC[C@H]1OC(=O)[C@H](C)[C@@H](O[C@H]2C[C@@](C)(OC)[C@@H](O)[C@H](C)O2)[C@H](C)[C@@H](O[C@@H]2O[C@H](C)C[C@H](N(C)C)[C@H]2O)[C@](C)(O)C[C@@H](C)CN(CCCNC(=O)Nc2cccc(Cl)c2)[C@H](C)[C@@H](O)[C@]1(C)O.O=CO [Example 80] |  |  | 
11 | 0.0746 (≈ 0.0783 µM) | 0.0676 (≈ 0.0709 µM) |  | 0.214 (≈ 0.225 µM) | CC[C@H]1OC(=O)[C@H](C)[C@@H](O[C@H]2C[C@@](C)(OC)[C@@H](O)[C@H](C)O2)[C@H](C)[C@@H](O[C@@H]2O[C@H](C)C[C@H](N(C)C)[C@H]2O)[C@](C)(O)C[C@@H](C)CN(CCCNC(=O)Nc2ccc(C(C)C)cc2)[C@H](C)[C@@H](O)[C@]1(C)O [Example 66] |  |  | 
12 | 0.193 (≈ 0.206 µM) | 0.092 (≈ 0.0983 µM) |  | 0.362 (≈ 0.386 µM) | CC[C@H]1OC(=O)[C@H](C)[C@@H](O[C@H]2C[C@@](C)(OC)[C@@H](O)[C@H](C)O2)[C@H](C)[C@@H](O[C@@H]2O[C@H](C)C[C@H](N(C)C)[C@H]2O)[C@](C)(O)C[C@@H](C)CN(CCCNC(=O)Nc2ccc(C#N)cc2)[C@H](C)[C@@H](O)[C@]1(C)O [Example 59] |  |  | 
13 | 0.0997 | 0.279 |  | 0.398 | CC[C@H]1OC(=O)[C@H](C)[C@@H](O[C@H]2C[C@@](C)(OC)[C@@H](O)[C@H](C)O2)[C@H](C)[C@@H](O[C@@H]2O[C@H](C)C[C@H](N(C)C)[C@H]2O)[C@](C)(O)C[C@@H](C)CN(CCCNC(=S)Nc2ccc(OC(F)F)cc2)[C@H](C)[C@@H](O)[C@]1(C)O.O=CO [Example 134] |  |  | 
14 | 0.33 | 0.319 |  | 0.371 | CC[C@H]1OC(=O)[C@H](C)[C@@H](O[C@H]2C[C@@](C)(OC)[C@@H](O)[C@H](C)O2)[C@H](C)[C@@H](O[C@@H]2O[C@H](C)C[C@H](N(C)C)[C@H]2O)[C@](C)(O)C[C@@H](C)CN(CCCNC(=O)Nc2cc(C)oc2C(F)(F)F)[C@H](C)[C@@H](O)[C@]1(C)O.O=CO [Example 88] |  |  | 
15 | 0.343 | 0.389 |  | 0.469 | CC[C@H]1OC(=O)[C@H](C)[C@@H](O[C@H]2C[C@@](C)(OC)[C@@H](O)[C@H](C)O2)[C@H](C)[C@@H](O[C@@H]2O[C@H](C)C[C@H](N(C)C)[C@H]2O)[C@](C)(O)C[C@@H](C)CN(CCCNC(=S)Nc2ccsc2C(=O)OC)[C@H](C)[C@@H](O)[C@]1(C)O.O=CO [Example 147] |  |  | 
16 | 0.137 | 0.297 |  | 0.7 | CC[C@H]1OC(=O)[C@H](C)[C@@H](O[C@H]2C[C@@](C)(OC)[C@@H](O)[C@H](C)O2)[C@H](C)[C@@H](O[C@@H]2O[C@H](C)C[C@H](N(C)C)[C@H]2O)[C@](C)(O)C[C@@H](C)CN(CCCNC(=S)N[C@H]2CCCC[C@@H]2OCc2ccccc2)[C@H](C)[C@@H](O)[C@]1(C)O.O=CO [Example 123] |  |  | 
17 | 0.556 (≈ 0.616 µM) | 0.251 (≈ 0.277 µM) | > 0.797 |  | CC[C@H]1OC(=O)[C@H](C)[C@@H](O[C@H]2C[C@@](C)(OC)[C@@H](O)[C@H](C)O2)[C@H](C)[C@@H](O[C@@H]2O[C@H](C)C[C@H](N(C)C)[C@H]2O)[C@](C)(O)C[C@@H](C)CN(CCCNC(=O)NC2CCCC2)[C@H](C)[C@@H](O)[C@]1(C)O [Example 56] |  |  | 
